Measured values from US20240251792A1, “WEED CONTROL METHOD” (SYNGENTA CROP PROTECTION AG, priority 2021, published 2024).
Read-outs that look alike come from different tables or passages of the source.

Legend:
Assay type in all cases: in vivo
weeds and/or crops = test: Post-emergence biological efficacy (Table 4); details: 1000 g/ha, evaluated after 13 days; for pest or weed control at 1000 g/ha: 312 h
Method in brief: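 Scores are visual damage (0 = none, 100 = total), read 13 days after treatment at 24/18 °C with 15 h light. Plants had been sown in standard soil and grown 14 days before a spray of compound in F50/acetone, diluted with 0.2% Genapol X080.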

LOLPE [1] = test: Pre-emergence biological efficacy (Table 3); details: 1000 g/ha, after 13 days
Method in brief: (§1)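 Pre-emergence spray one day after sowing; the compound, made up as a 50 g/l AMA-based formulation, was diluted with 0.2% Genapol X080. Visual damage rating 13 days later on a 0-100 scale, with glasshouse conditions of 24/18° C day/night and 15 h light.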

AMARE [2] = test: Pre-emergence biological efficacy (Table 3); details: 1000 g/ha, after 13 days; for pest or weed control at 1000 g/ha: Amaranthus retroflexus, 312 h, read-out: evaluation (100=total damage to plant; 0=no damage to plant)
Method in brief: as §1

SETFA = test: Pre-emergence biological efficacy (Table 3); details: 1000 g/ha, after 13 days; for pest or weed control at 1000 g/ha: Setaria faberi, 312 h, read-out: evaluation (100=total damage to plant; 0=no damage to plant)
Method in brief: as §1

IPOHE = test: Pre-emergence biological efficacy (Table 3); details: 1000 g/ha, after 13 days; for pest or weed control at 1000 g/ha: Ipomoea hederacea, 312 h, read-out: evaluation (100=total damage to plant; 0=no damage to plant)
Method in brief: as §1

ECHCG = test: Pre-emergence biological efficacy (Table 3); details: 1000 g/ha, after 13 days; for pest or weed control at 1000 g/ha: Echinochloa crus-galli, 312 h, read-out: evaluation (100=total damage to plant; 0=no damage to plant)
Method in brief: as §1

SOLNI = test: Pre-emergence biological efficacy (Table 3); details: 1000 g/ha, after 13 days
Method in brief: as §1

LOLPE [3] = test: Biological efficacy, post-emergence glasshouse test (Table 2); details: 1000 g/ha, after 12 days
Method in brief: (§2)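 Seeds sown in unsterilised compost were grown one day (pre-emergence) or seven days (post-emergence) in a glasshouse at 24/16 °C day/night, 14 h light, 65% humidity, then sprayed at 1000 g/ha in acetone/water/Tween 20 (49.75:49.75:0.5). Damage was scored after 12 days, 0 (none) to 100 (total).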

AMARE [4] = test: as above; details: 1000 g/ha, after 12 days
Method in brief: as §2

DIGSA [5] = test: as above; details: 1000 g/ha, after 12 days
Method in brief: as §2

STEME [6] = test: as above; details: 1000 g/ha, after 12 days
Method in brief: as §2

LOLPE [7] = test: Biological efficacy, pre-emergence glasshouse test (Table 2); details: 1000 g/ha, after 12 days
Method in brief: as §2

AMARE [8] = test: as above; details: 1000 g/ha, after 12 days
Method in brief: as §2

DIGSA [9] = test: as above; details: 1000 g/ha, after 12 days
Method in brief: as §2

STEME [10] = test: as above; details: 1000 g/ha, after 12 days
Method in brief: as §2

[11] = Amaranthus retroflexus, AMARE, read-out: damage to plant AMARE (100=total damage; 0=no damage)
[12] = Echinochloa crus-galli, ECHCG, read-out: damage to plant ECHCG (100=total damage; 0=no damage)
[13] = Ipomoea hederacea, IPOHE, read-out: damage to plant IPOHE (100=total damage; 0=no damage)
[14] = Setaria faberi, SETFA, read-out: damage to plant SETFA (100=total damage; 0=no damage)

Q: With COC(=O)C(F)(F)c1c(Cl)cccc1OC [Compound 2-65, Methyl 2-(2-chloro-6-methoxy-phenyl)-2,2-difluoro-acetate] as the compound, how does the pest or weed control at 1000 g/ha (weeds and/or crops; [11]) read?
A: 70%

Q: What about the pest or weed control at 1000 g/ha (weeds and/or crops; [12]) of the same compound?
A: 40%

Q: And the pest or weed control at 1000 g/ha (weeds and/or crops; [13])?
A: 70%

Q: What about the “damage to plant LOLPE (100=total damage; 0=no damage)” value (weeds and/or crops) of the same compound?
A: 0

Q: What about the “damage to plant SOLNI (100=total damage; 0=no damage)” value (weeds and/or crops) of the same compound?
A: 30

Q: What about the pest or weed control at 1000 g/ha (weeds and/or crops; [14]) of the same compound?
A: 10%

Q: What about the “evaluation (100=total damage to plant; 0=no damage to plant)” value (LOLPE [1]) of the same compound?
A: 0

Q: What about the pest or weed control at 1000 g/ha (AMARE [2]) of the same compound?
A: 50%

Q: What about the pest or weed control at 1000 g/ha (SETFA) of the same compound?
A: 0%

Q: And the pest or weed control at 1000 g/ha (IPOHE)?
A: 70%

Q: What about the pest or weed control at 1000 g/ha (ECHCG) of the same compound?
A: 0%

Q: And the “evaluation (100=total damage to plant; 0=no damage to plant)” value (SOLNI)?
A: 10

Q: What does the source list for COC(=O)C(F)(F)c1c(Cl)ccc2cc(Cl)cnc12 [Compound 2-418, Methyl 2-(3,7-dichloro-8-quinolyl)-2,2-difluoro-acetate]?
A: pest or weed control at 1000 g/ha (weeds and/or crops; [11]): 70%; pest or weed control at 1000 g/ha (weeds and/or crops; [12]): 0%; pest or weed control at 1000 g/ha (weeds and/or crops; [13]): 80%; damage to plant LOLPE (100=total damage; 0=no damage) (weeds and/or crops): 0; pest or weed control at 1000 g/ha (weeds and/or crops; [14]): 0%; evaluation (100=total damage to plant; 0=no damage to plant) (LOLPE [1]): 0; pest or weed control at 1000 g/ha (AMARE [2]): 60%; pest or weed control at 1000 g/ha (SETFA): 20%; pest or weed control at 1000 g/ha (IPOHE): 50%; pest or weed control at 1000 g/ha (ECHCG): 10%

Q: For O=C(O)C(F)(F)c1cccc2ccccc12 [Compound 1-397, 2,2-Difluoro-2-(1-naphthyl)acetic acid], which pest or weed control at 1000 g/ha (weeds and/or crops; [11]) is on record?
A: 70%

Q: What about the pest or weed control at 1000 g/ha (weeds and/or crops; [12]) of the same compound?
A: 20%

Q: What about the pest or weed control at 1000 g/ha (weeds and/or crops; [13]) of the same compound?
A: 70%

Q: And the “damage to plant LOLPE (100=total damage; 0=no damage)” value (weeds and/or crops)?
A: 10

Q: And the “damage to plant SOLNI (100=total damage; 0=no damage)” value (weeds and/or crops)?
A: 80

Q: What about the pest or weed control at 1000 g/ha (weeds and/or crops; [14]) of the same compound?
A: 10%

Q: What about the “score (100=total damage to plant, 0=no damage to plant)” value (LOLPE [3]) of the same compound?
A: 0

Q: What about the “score (100=total damage to plant, 0=no damage to plant)” value (AMARE [4]) of the same compound?
A: 70

Q: And the “score (100=total damage to plant, 0=no damage to plant)” value (DIGSA [5])?
A: 0

Q: And the “score (100=total damage to plant, 0=no damage to plant)” value (STEME [6])?
A: 80

Q: What about the “score (100=total damage to plant, 0=no damage to plant)” value (LOLPE [7]) of the same compound?
A: 70

Q: What about the “score (100=total damage to plant, 0=no damage to plant)” value (AMARE [8]) of the same compound?
A: 90

Q: And the “score (100=total damage to plant, 0=no damage to plant)” value (DIGSA [9])?
A: 30

Q: What about the “score (100=total damage to plant, 0=no damage to plant)” value (STEME [10]) of the same compound?
A: 90

Q: What about the “evaluation (100=total damage to plant; 0=no damage to plant)” value (LOLPE [1]) of the same compound?
A: 40

Q: And the pest or weed control at 1000 g/ha (AMARE [2])?
A: 80%

Q: And the pest or weed control at 1000 g/ha (SETFA)?
A: 20%

Q: And the pest or weed control at 1000 g/ha (IPOHE)?
A: 80%

Q: And the pest or weed control at 1000 g/ha (ECHCG)?
A: 60%

Q: And the “evaluation (100=total damage to plant; 0=no damage to plant)” value (SOLNI)?
A: 100

Q: How did the pest or weed control at 1000 g/ha (weeds and/or crops; [11]) turn out when O=C(O)C(F)(F)c1c(Cl)ccc2cc(Cl)cnc12 [Compound 1-418, 2-(3,7-Dichloro-8-quinolyl)-2,2-difluoro-acetic acid] was run?
A: 50%

Q: And the pest or weed control at 1000 g/ha (weeds and/or crops; [12])?
A: 0%

Q: And the pest or weed control at 1000 g/ha (weeds and/or crops; [13])?
A: 40%

Q: And the “damage to plant LOLPE (100=total damage; 0=no damage)” value (weeds and/or crops)?
A: 0

Q: What about the “damage to plant SOLNI (100=total damage; 0=no damage)” value (weeds and/or crops) of the same compound?
A: 90

Q: What about the pest or weed control at 1000 g/ha (weeds and/or crops; [14]) of the same compound?
A: 0%

Q: What about the “evaluation (100=total damage to plant; 0=no damage to plant)” value (LOLPE [1]) of the same compound?
A: 0

Q: And the pest or weed control at 1000 g/ha (AMARE [2])?
A: 30%

Q: And the pest or weed control at 1000 g/ha (SETFA)?
A: 50%

Q: What about the pest or weed control at 1000 g/ha (IPOHE) of the same compound?
A: 50%

Q: What about the pest or weed control at 1000 g/ha (ECHCG) of the same compound?
A: 20%

Q: What about the “evaluation (100=total damage to plant; 0=no damage to plant)” value (SOLNI) of the same compound?
A: 10

Q: With COc1ccccc1C(F)(F)C(=O)O [Compound 1-9] as the compound, how does the “damage to plant AMARE (100=total damage; 0=no damage)” value (weeds and/or crops; AMARE) read?
A: 70

Q: What about the “damage to plant ECHCG (100=total damage; 0=no damage)” value (weeds and/or crops; ECHCG) of the same compound?
A: 0

Q: And the “damage to plant IPOHE (100=total damage; 0=no damage)” value (weeds and/or crops; IPOHE)?
A: 60

Q: And the “damage to plant LOLPE (100=total damage; 0=no damage)” value (weeds and/or crops)?
A: 0

Q: What about the “damage to plant SETFA (100=total damage; 0=no damage)” value (weeds and/or crops; SETFA) of the same compound?
A: 0

Q: What about the “damage to plant SOLNI (100=total damage; 0=no damage)” value (weeds and/or crops) of the same compound?
A: 60

Q: What about the “score (100=total damage to plant, 0=no damage to plant)” value (LOLPE [3]) of the same compound?
A: 0

Q: And the “score (100=total damage to plant, 0=no damage to plant)” value (AMARE [4])?
A: 90

Q: And the “score (100=total damage to plant, 0=no damage to plant)” value (DIGSA [5])?
A: 0

Q: And the “score (100=total damage to plant, 0=no damage to plant)” value (STEME [6])?
A: 80

Q: And the “score (100=total damage to plant, 0=no damage to plant)” value (LOLPE [7])?
A: 0

Q: And the “score (100=total damage to plant, 0=no damage to plant)” value (AMARE [8])?
A: 80

Q: What about the “score (100=total damage to plant, 0=no damage to plant)” value (DIGSA [9]) of the same compound?
A: 0

Q: And the “score (100=total damage to plant, 0=no damage to plant)” value (STEME [10])?
A: 60

Q: And the “evaluation (100=total damage to plant; 0=no damage to plant)” value (LOLPE [1])?
A: 20

Q: What about the “evaluation (100=total damage to plant; 0=no damage to plant)” value (AMARE [2]) of the same compound?
A: 70

Q: And the “evaluation (100=total damage to plant; 0=no damage to plant)” value (SETFA)?
A: 20

Q: What about the “evaluation (100=total damage to plant; 0=no damage to plant)” value (IPOHE) of the same compound?
A: 60

Q: What about the “evaluation (100=total damage to plant; 0=no damage to plant)” value (ECHCG) of the same compound?
A: 20

Q: And the “evaluation (100=total damage to plant; 0=no damage to plant)” value (SOLNI)?
A: 90
